Reference: patent publication US10456359B2, “Synergistic beverage composition” (Harsha Chigurupati, priority 2015, dated 2019)
Where a SMILES comes first, the peptide text is derived from it.

Columns and labels:
[1] = system: Monocyte chemoattractant protein-1 (MCP-1); assay: CNS/immunology study, serum MCP-1, alcohol 5 days; type: in vivo, Wistar albino rats; conditions: Pro: Protection (%), rats, alcohol 5 Day
Method: (§1) The lowest detectable limit of the kit is 0.1 ng/ml (Wang L, Li Y, Chen J, et al. “Ischemic Cerebral Tissue and MCP-1 Enhance Rat Bone Marrow Stromal Cell Migration in Interface Culture.” Experimental Hematology, 30, 7, 2002, 831-836).
(§2) For hangover, 1 day immunology parameter were considered and for CNS, 5 days immunology parameter were considered.

[2] = system: interleukin-12 (IL-12) from brain homogenate; assay: Hangover study, IL-12 from brain homogenate, alcohol 1 day; type: in vivo, Wistar albino rats; design: concentration or dose not given beside the values; conditions: 1 Day alcohol
interleukin-12 (IL-12) [3] = assay: CNS/immunology study, serum IL-12, alcohol 5 days; type: in vivo, Wistar albino rats; conditions: Pro: Protection (%), rats, alcohol 5 Day
Description: as §2

[4] = system: acetylcholinesterase activity of brain homogenate; conditions: Hangover study, 1 Day alcohol; ingredient amounts in mass concentration (%)
Method: (§4) We have included this parameter to evaluate cognition and memory deficit in experimental animals.
(§5) Experimental Design • (b) Animal study model 1: Saline/Alcohol (4.0 gm/kg/day, p.o.)/Formulation with alcohol (4.0 gm/kg/day, p.o.) were administered (fed orally by orogastric cannula) for one day. 12-16 hours after the dose the animals were sacrificed and blood samples will be collected for estimation of biochemical parameters. Whole brain without cerebellum were dissected out, 10% homogenate was prepared with 0.1 M PB (pH 7.4). The homogenate solution was centrifuged at 10000 rpm for 20 minutes at 4° C. and the supernatant was used for estimation of acetylcholinesterase activity, which was estimated by Ellman's method (Ellman G L et al. A new and rapid colorimetric determination of acetylcholinesterase activity. Biochem Pharmacol, 1961, 7:88.) • (c) Animal study model 2: Saline/Alcohol (4.0 gm/kg/day, p.o.)/Formulation with alcohol (4.0 gm/kg/day, p.o.) were administered (fed orally by orogastric cannula) for 5 consecutive days. 12-16 hours after the last dose, the animals were sacrificed and blood samples were collected for estimation of biochemical parameters. Whole brain without cerebellum were dissected out, 10% homogenate was prepared with 0.1 M PB (pH 7.4). The homogenate solution was centrifuged at 10000 rpm for 20 minutes at 4° C. and the supernatant was used for estimation of acetylcholinesterase activity. […] The latency period of day 5 (before alcohol) was compared with post alcohol latency period (Vorhees C V and Williams M T. Morris water maze: procedures for assessing spatial and related forms of learning and memory, Nat Protoc, 2006, 1(2): 848-58.). % Protection Calculated in Above Experiments: % Protection=1−[(T−NS)/(AL−NS)]×100 T=Mean value of drug treated, NS=Mean value of normal control, AL=Mean value of alcohol alone.
(§6) Male Wistar albino rats weighing 150-200 g were procured and randomly divided into groups consisting of twelve (12) animals in each group. Alcohol induced hangover and CNS related biochemical changes and memory function in rats by oral administration of 30% alcohol (4 gm/kg/day, p.o.) for 1 and 5 days and this group served as the negative control and treated groups received different formulation.
(§7) All drug solutions were prepared in 40% aqueous alcohol, adjusting the pH in the range of 5.0-10.0 for evaluation of alcohol induced hangover and CNS related biochemical parameters.

[5] = system: interleukin-12 (IL-12) from brain homogenate; assay: CNS study, IL-12 from brain homogenate, alcohol 5 days; type: in vivo, Wistar albino rats; conditions: Pro: Protection (%), rats, alcohol 5 Day
[6] = system: alkaline phosphatase (ALP); conditions: Pro: Protection (%); rats, alcohol 4 gm/kg/day p.o., 5 days, serum
Method: The levels of alanine aminotransferase (ALT), aspartate aminotransferase (AST) and alkaline phosphatise (ALP) in serum were measured using commercial spectrophotometric kit bought from Span Diagnostic Ltd. (www.span.in) according to the manufacturer's protocols.
12-16 hours after the last dose, the animals were sacrificed and blood samples were collected for estimation of biochemical parameters.
Male Wistar albino rats weighing 150-200 g were procured and randomly divided into groups consisting of twelve (12) animals in each group. Hepatoprotection was induced by alcohol in rats by oral administration of 30% alcohol (4 gm/kg/day, p.o.) for 5 days and this group served as the negative control and treated groups received different formulation.
All drug solutions were prepared in 40% aqueous alcohol, adjusting the pH in the range of 5.0-10.0 for evaluation of alcohol induced Hepatoprotection. This solution was further diluted with distilled water to obtain 30% aqueous alcoholic solution and administered orally by gavage to different rats group of step (a).

interleukin-12 (IL-12) [7] = assay: Hangover study, serum IL-12, alcohol 1 day; type: in vivo, Wistar albino rats; design: concentration or dose not given beside the values; conditions: 1 Day alcohol
Description: as §2

[8] = system: aspartate aminotransferase (AST); assay: Hepatoprotection study, serum AST, alcohol 5 days; type: in vivo, Wistar albino rats; conditions: Pro: Protection (%), rats, alcohol 4 gm/kg/day p.o.
[9] = system: serum C-reactive protein (CRP); assay: Hangover study, serum CRP, alcohol 1 day; type: in vivo, Wistar albino rats; conditions: 1 Day alcohol
Description: as §2

[10] = system: Monocyte chemoattractant protein-1 (MCP-1) from brain homogenate; assay: Hangover study, MCP-1 from brain homogenate, alcohol 1 day; type: in vivo, Wistar albino rats; conditions: 1 Day alcohol
[11] = system: acetylcholinesterase activity of brain homogenate; conditions: Pro: Protection (%), rats, alcohol 5 Day
Method: as §4, §5, §6, §7

Interferon gamma (IFN-γ) [12] = assay: CNS/immunology study, serum IFN-gamma, alcohol 5 days; type: in vivo, Wistar albino rats; conditions: Pro: Protection (%), rats, alcohol 5 Day
Description: (§3) Distilled ethanol was obtained from Bengal Chemicals, West Bengal, India. Biochemical kits like AST, ALT, ALP and total protein were obtained from Span Diagnostics Ltd. Surat, India. Rat IL-12 ELISA kit (Elabscience Biotechnology Co. Ltd, WuHan, P.R.C.), Rat CRP ELISA kit (BD Biosciences, USA), Rat IFN-gamma ELISA kit (Biolegend, San Diego, Calif.) Rat MCP-1 ELISA kit (Elabscience Biotechnology Co. Ltd, WuHan, P.R.C.). All the chemicals used in the present study were of analytical grade and obtained from the following companies: Sigma (St. Louis, Mo., USA), Merck (Mumbai, India), S D fine chemicals (Mumbai, India) and Qualigen (Mumbai, India).
as §2

[13] = system: serum alanine aminotransferase (ALT); assay: Hepatoprotection study, serum ALT, alcohol 5 days; type: in vivo, Wistar albino rats; conditions: Pro: Protection (%), rats, alcohol 4 gm/kg/day p.o.
Interferon gamma (IFN-γ) [14] = assay: Hangover study, serum IFN-gamma, alcohol 1 day; type: in vivo, Wistar albino rats; design: concentration or dose not given beside the values; conditions: 1 Day alcohol
Description: as §3, §2

[15] = system: Monocyte chemoattractant protein-1 (MCP-1) from brain homogenate; assay: CNS study, MCP-1 from brain homogenate, alcohol 5 days; type: in vivo, Wistar albino rats; conditions: Pro: Protection (%), rats, alcohol 5 Day
[16] = system: spatial learning and memory; assay: Morris water maze task (escape latency), alcohol 5 days; type: in vivo, Wistar albino rats; conditions: Pro: Protection (%), rats, alcohol 5 day
[17] = system: serum C-reactive protein (CRP); assay: CNS/immunology study, serum CRP, alcohol 5 days; type: in vivo, Wistar albino rats; conditions: Pro: Protection (%), rats, alcohol 5 Day
Description: as §2

[18] = system: Monocyte chemoattractant protein-1 (MCP-1); assay: Hangover study, serum MCP-1, alcohol 1 day; type: in vivo, Wistar albino rats; design: concentration or dose not given beside the values; conditions: 1 Day alcohol
Method: as §1, §2

serum ALT, AST and ALP = assay: Hepatoprotection study overall (rise of serum ALT, AST and ALP), 5 alcohol doses; type: in vivo, Wistar albino rats; conditions: 5 alcohol doses of 4 gm/kg per oral

| SMILES | MCP-1 Pro [1] | Brain IL12 Pro (Protection) [2] | IL12 Pro (interleukin-12 (IL-12) [3]) | ACHe Pro (Protection) [4] | Brain IL12 Pro [5] | ALP Pro [6] | IL12 Pro (Protection) (interleukin-12 (IL-12) [7]) | AST Pro [8] | CRP Pro (Protection) [9] | Brain MCP-1 Pro (Protection) [10] | ACHe Pro [11] | IFN-Gamma Pro (Interferon gamma (IFN-γ) [12]) | ALT Pro [13] | IFN-Gamma Pro (Protection) (Interferon gamma (IFN-γ) [14]) | Brain MCP-1 Pro [15] | WATER MAZE Pro [16] | CRP Pro [17] | MCP-1 Pro (Protection) [18] | other results |
| --- | --- | --- | --- | --- | --- | --- | --- | --- | --- | --- | --- | --- | --- | --- | --- | --- | --- | --- | --- |
| CC1(C(=O)O)CCC2(C)CCC3(C)C(=CC(=O)C4C5(C)CCC(OC6OC(C(=O)O)C(O)C(O)C6OC6OC(C(=O)O)C(O)C(O)C6O)C(C)(C)C5CCC43C)C2C1 (stereo not drawn) [0.04 GA, 18β-GA] | 3.38% | 1.09% | 3.08% | 0.59% | 1.28% | 2.78% | 1.05% | 2.18% | 2.04% | 1.15% | 1.43% | 1.07% | 0.89% | 1.25% | 1.58% | 1.58% | 2.37% | 0.6% |  |
| CC1(C(=O)O)CCC2(C)CCC3(C)C(=CC(=O)C4C5(C)CCC(OC6OC(C(=O)O)C(O)C(O)C6OC6OC(C(=O)O)C(O)C(O)C6O)C(C)(C)C5CCC43C)C2C1 (stereo not drawn) [0.04a GA, 18α-GA] | 0.1% | 0.1% | 0.1% | 0.1% | 0.1% | 1.08% | 0.1% | 2.24% | 0.1% | 0.1% | 0.1% | 0.1% | 1.26% | 0.1% | 0.1% | 2.1% | 0.1% | 0.1% |  |
| C[C@H](N)C(=O)N[C@@H](CCC(N)=O)C(=O)O [0.5 DP, L-Ala-L-Gln] (H-Ala-Gln-OH) | 0.1% | 3.69% | 2.64% | 4.33% | 2.35% | 6.95% | 0.54% | 5.86% | 4.05% | 4.59% | 4.33% | 3.32% | 9.13% | 2.58% | 5.12% | 5.18% | 6.13% | 4.33% |  |
| C[C@H](N)C(=O)N[C@@H](CCC(N)=O)C(=O)O [0.75 DP, L-Ala-L-Gln] (H-Ala-Gln-OH) | 0.75% | 7.14% | 13.88% | 8.94% | 7.01% | 12.24% | 14.84% | 9.14% | 15.93% | 10.14% | 6.73% | 5.62% | 5.28% | 6.38% | 9.63% | 13.15% | 3.78% | 5.25% |  |
| CC1(C(=O)O)CCC2(C)CCC3(C)C(=CC(=O)C4C5(C)CCC(OC6OC(C(=O)O)C(O)C(O)C6OC6OC(C(=O)O)C(O)C(O)C6O)C(C)(C)C5CCC43C)C2C1 (stereo not drawn) [GA, 18-beta-Glycyrrhizin] |  |  |  |  |  |  |  |  |  |  |  |  |  |  |  |  |  |  | degree of protection (serum ALT, AST and ALP; GA as such at 0.04-0.3%): 5-25% |
| C[C@H](N)C(=O)N[C@@H](CCC(N)=O)C(=O)O [L-alanine-L-glutamine (DP), L-alanyl-L-glutamine] (H-Ala-Gln-OH) |  |  |  |  |  |  |  |  |  |  |  |  |  |  |  |  |  |  | degree of protection (serum ALT, AST and ALP; dose level of 0.5 to 1.0%): mild effect; degree of protection (serum ALT, AST and ALP; higher doses (2.0 to 3.0%)): high degree of protection |
| OC[C@@H](O)[C@@H](O)[C@H](O)[C@H](O)CO [Mannitol, D-Mannitol] |  |  |  |  |  |  |  |  |  |  |  |  |  |  |  |  |  |  | degree of protection (serum ALT, AST and ALP; individual ingredient at 0.5 to […]): 10-38% |
